According to ChEMBL document CHEMBL5705893, “Targeting the mitotic checkpoint for cancer therapy with NMS-P715, an inhibitor of MPS1 kinase” (Cancer Res, 2010):

What was measured:
[1] = target: Eukaryotic elongation factor 2 kinase (Homo sapiens, UniProt O00418); experiment: Inhibition of recombinant EEF2K (unknown origin)
[2] = Inhibition of recombinant AUR1 (unknown origin); design: species or system Homo sapiens
[3] = target: Serine/threonine-protein kinase pim-1 (Homo sapiens, UniProt P11309); experiment: Inhibition of recombinant PIM1 (unknown origin)
[4] = target: CDC7/DBF4 (Cell division cycle 7-related protein kinase/Activator of S phase kinase) (Homo sapiens, UniProt O00311); experiment: Inhibition of recombinant CDC7/DBF4 (unknown origin); format: protein-complex assay
[5] = target: Inhibitor of nuclear factor kappa-B kinase subunit beta (Homo sapiens, UniProt O14920); experiment: Inhibition of recombinant IKK2 (unknown origin)
[6] = target: Vascular endothelial growth factor receptor 3 (Homo sapiens, UniProt P35916); experiment: Inhibition of recombinant VEGFR3 (unknown origin)
[7] = target: Non-receptor tyrosine-protein kinase TYK2 (Homo sapiens, UniProt P29597); experiment: Inhibition of recombinant TYK 2 (unknown origin)
[8] = target: Receptor-type tyrosine-protein kinase FLT3 (Homo sapiens, UniProt P36888); experiment: Inhibition of recombinant FLT3 (unknown origin)
[9] = target: Tyrosine-protein kinase Lyn (Homo sapiens, UniProt P07948); experiment: Inhibition of recombinant LYN (unknown origin)
[10] = target: Casein kinase 2 (Homo sapiens, UniProt P67870+P68400+P19784+Q8NEV1); experiment: Inhibition of recombinant CK2 (unknown origin); format: protein assay
[11] = target: Serine/threonine-protein kinase pim-2 (Homo sapiens, UniProt Q9P1W9); experiment: Inhibition of recombinant PIM2 (unknown origin)
[12] = target: Mitogen-activated protein kinase 1 (Homo sapiens, UniProt P28482); experiment: Inhibition of recombinant ERK2 (unknown origin)
[13] = target: Protein-tyrosine kinase 6 (Homo sapiens, UniProt Q13882); experiment: Inhibition of recombinant BRK (unknown origin)
[14] = Inhibition of recombinant SULU1 (unknown origin); design: species or system Homo sapiens
[15] = target: Serine/threonine-protein kinase haspin (Homo sapiens, UniProt Q8TF76); experiment: Inhibition of recombinant Haspin (unknown origin)
[16] = target: Glycogen synthase kinase-3 beta (Homo sapiens, UniProt P49841); experiment: Inhibition of recombinant GSK3beta (unknown origin)
[17] = target: Eukaryotic translation initiation factor 2-alpha kinase 3 (Homo sapiens, UniProt Q9NZJ5); experiment: Inhibition of recombinant PERK (unknown origin)
[18] = target: RAC-alpha serine/threonine-protein kinase (Homo sapiens, UniProt P31749); experiment: Inhibition of recombinant AKT1 (unknown origin)
[19] = target: Tyrosine-protein kinase Lck (Homo sapiens, UniProt P06239); experiment: Inhibition of recombinant LCK (unknown origin)
[20] = target: Serine/threonine-protein kinase Chk1 (Homo sapiens, UniProt O14757); experiment: Inhibition of recombinant CHK1 (unknown origin)
[21] = target: Fibroblast growth factor receptor 1 (Homo sapiens, UniProt P11362); experiment: Inhibition of recombinant FGFR1 (unknown origin)
[22] = Inhibition of recombinant ABL (unknown origin); design: species or system Homo sapiens
[23] = target: Tyrosine-protein kinase JAK3 (Homo sapiens, UniProt P52333); experiment: Inhibition of recombinant JAK3 (unknown origin)
[24] = target: Mitotic checkpoint serine/threonine-protein kinase BUB1 (Homo sapiens, UniProt O43683); experiment: Inhibition of recombinant BUB1 (unknown origin)
[25] = target: High affinity nerve growth factor receptor (Homo sapiens, UniProt P04629); experiment: Inhibition of recombinant TRKA (unknown origin)
[26] = target: Serine/threonine-protein kinase NIM1 (Homo sapiens, UniProt Q8IY84); experiment: Inhibition of recombinant NIM1 (unknown origin)
[27] = Inhibition of recombinant AUR2 (unknown origin); design: species or system Homo sapiens
[28] = Inhibition of recombinant PDGFR (unknown origin); design: species or system Homo sapiens
[29] = target: Serine/threonine-protein kinase Nek6 (Homo sapiens, UniProt Q9HC98); experiment: Inhibition of recombinant NEK6 (unknown origin)
[30] = target: Mast/stem cell growth factor receptor Kit (Homo sapiens, UniProt P10721); experiment: Inhibition of recombinant KIT (unknown origin)
[31] = target: MAP kinase-activated protein kinase 2 (Homo sapiens, UniProt P49137); experiment: Inhibition of recombinant MAPKAPK2 (unknown origin)
[32] = target: Serine/threonine-protein kinase PLK1 (Homo sapiens, UniProt P53350); experiment: Inhibition of recombinant PLK1 (unknown origin)
[33] = target: Focal adhesion kinase 1 (Homo sapiens, UniProt Q05397); experiment: Inhibition of recombinant FAK (unknown origin)
[34] = target: Tyrosine-protein kinase ZAP-70 (Homo sapiens, UniProt P43403); experiment: Inhibition of recombinant ZAP70 (unknown origin)
[35] = target: Tyrosine-protein kinase JAK1 (Homo sapiens, UniProt P23458); experiment: Inhibition of recombinant JAK1 (unknown origin)
[36] = target: Serine/threonine-protein kinase 26 (Homo sapiens, UniProt Q9P289); experiment: Inhibition of recombinant MST4 (unknown origin)
[37] = target: Insulin receptor (Homo sapiens, UniProt P06213); experiment: Inhibition of recombinant IR (unknown origin)
[38] = target: Maternal embryonic leucine zipper kinase (Homo sapiens, UniProt Q14680); experiment: Inhibition of recombinant MELK (unknown origin)
[39] = target: ALK tyrosine kinase receptor (Homo sapiens, UniProt Q9UM73); experiment: Inhibition of recombinant ALK (unknown origin)
[40] = target: Protein kinase C beta type (Homo sapiens, UniProt P05771); experiment: Inhibition of recombinant PKCbeta (unknown origin)
[41] = target: Activated CDC42 kinase 1 (Homo sapiens, UniProt Q07912); experiment: Inhibition of recombinant ACK1 (unknown origin)
[42] = target: T1, Dual specificity protein kinase TTK (Homo sapiens, UniProt P33981); experiment: Inhibition of MPS1 in human taxol-arrested U2OS cells assessed as effect on histone H3 phosphorylation at ser10 residue incubated for 2 hrs by arrayscan analysis; format: cell-based
T1 sequence (P33981 whole entry): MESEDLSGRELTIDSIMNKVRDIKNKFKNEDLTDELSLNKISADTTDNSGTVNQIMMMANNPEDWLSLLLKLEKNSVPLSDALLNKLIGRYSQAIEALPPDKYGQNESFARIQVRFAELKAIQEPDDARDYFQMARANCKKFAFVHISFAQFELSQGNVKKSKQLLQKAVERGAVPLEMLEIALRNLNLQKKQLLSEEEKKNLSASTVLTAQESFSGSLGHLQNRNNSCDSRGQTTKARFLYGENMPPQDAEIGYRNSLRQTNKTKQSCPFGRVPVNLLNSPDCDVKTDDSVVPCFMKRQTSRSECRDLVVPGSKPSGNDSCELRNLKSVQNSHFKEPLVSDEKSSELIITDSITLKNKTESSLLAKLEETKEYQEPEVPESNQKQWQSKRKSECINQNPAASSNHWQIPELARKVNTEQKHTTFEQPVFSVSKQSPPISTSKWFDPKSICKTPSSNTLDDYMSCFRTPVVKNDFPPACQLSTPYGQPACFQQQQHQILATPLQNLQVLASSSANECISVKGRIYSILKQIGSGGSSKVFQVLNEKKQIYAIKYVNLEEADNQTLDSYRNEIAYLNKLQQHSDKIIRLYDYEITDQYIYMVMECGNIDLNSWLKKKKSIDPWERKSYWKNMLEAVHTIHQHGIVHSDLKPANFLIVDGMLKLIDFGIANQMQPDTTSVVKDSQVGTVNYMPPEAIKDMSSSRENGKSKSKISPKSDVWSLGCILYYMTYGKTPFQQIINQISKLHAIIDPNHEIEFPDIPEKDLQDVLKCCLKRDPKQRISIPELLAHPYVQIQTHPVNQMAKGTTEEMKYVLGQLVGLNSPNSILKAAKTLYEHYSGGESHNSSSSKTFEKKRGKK

[43] = target: Serine/threonine-protein kinase PAK 4 (Homo sapiens, UniProt O96013); experiment: Inhibition of recombinant PAK4 (unknown origin)
[44] = target: T1, Dual specificity protein kinase TTK; experiment: Inhibition of recombinant MPS1 (unknown origin)
[45] = target: Vascular endothelial growth factor receptor 2 (Homo sapiens, UniProt P35968); experiment: Inhibition of recombinant VEGFR2 (unknown origin)
[46] = target: Proto-oncogene tyrosine-protein kinase receptor Ret (Homo sapiens, UniProt P07949); experiment: Inhibition of recombinant RET (unknown origin)

Sequence of Serine/threonine-protein kinase pim-1 (P11309 whole entry): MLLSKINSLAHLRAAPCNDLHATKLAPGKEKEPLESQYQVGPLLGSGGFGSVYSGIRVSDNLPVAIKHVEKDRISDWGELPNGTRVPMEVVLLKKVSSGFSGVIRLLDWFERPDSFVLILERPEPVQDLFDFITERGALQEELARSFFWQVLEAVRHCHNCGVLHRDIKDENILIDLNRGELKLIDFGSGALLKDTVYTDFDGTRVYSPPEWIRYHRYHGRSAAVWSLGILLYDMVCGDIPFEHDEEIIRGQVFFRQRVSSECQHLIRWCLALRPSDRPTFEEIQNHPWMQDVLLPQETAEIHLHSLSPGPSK
Sequence of Eukaryotic translation initiation factor 2-alpha kinase 3 (Q9NZJ5 whole entry): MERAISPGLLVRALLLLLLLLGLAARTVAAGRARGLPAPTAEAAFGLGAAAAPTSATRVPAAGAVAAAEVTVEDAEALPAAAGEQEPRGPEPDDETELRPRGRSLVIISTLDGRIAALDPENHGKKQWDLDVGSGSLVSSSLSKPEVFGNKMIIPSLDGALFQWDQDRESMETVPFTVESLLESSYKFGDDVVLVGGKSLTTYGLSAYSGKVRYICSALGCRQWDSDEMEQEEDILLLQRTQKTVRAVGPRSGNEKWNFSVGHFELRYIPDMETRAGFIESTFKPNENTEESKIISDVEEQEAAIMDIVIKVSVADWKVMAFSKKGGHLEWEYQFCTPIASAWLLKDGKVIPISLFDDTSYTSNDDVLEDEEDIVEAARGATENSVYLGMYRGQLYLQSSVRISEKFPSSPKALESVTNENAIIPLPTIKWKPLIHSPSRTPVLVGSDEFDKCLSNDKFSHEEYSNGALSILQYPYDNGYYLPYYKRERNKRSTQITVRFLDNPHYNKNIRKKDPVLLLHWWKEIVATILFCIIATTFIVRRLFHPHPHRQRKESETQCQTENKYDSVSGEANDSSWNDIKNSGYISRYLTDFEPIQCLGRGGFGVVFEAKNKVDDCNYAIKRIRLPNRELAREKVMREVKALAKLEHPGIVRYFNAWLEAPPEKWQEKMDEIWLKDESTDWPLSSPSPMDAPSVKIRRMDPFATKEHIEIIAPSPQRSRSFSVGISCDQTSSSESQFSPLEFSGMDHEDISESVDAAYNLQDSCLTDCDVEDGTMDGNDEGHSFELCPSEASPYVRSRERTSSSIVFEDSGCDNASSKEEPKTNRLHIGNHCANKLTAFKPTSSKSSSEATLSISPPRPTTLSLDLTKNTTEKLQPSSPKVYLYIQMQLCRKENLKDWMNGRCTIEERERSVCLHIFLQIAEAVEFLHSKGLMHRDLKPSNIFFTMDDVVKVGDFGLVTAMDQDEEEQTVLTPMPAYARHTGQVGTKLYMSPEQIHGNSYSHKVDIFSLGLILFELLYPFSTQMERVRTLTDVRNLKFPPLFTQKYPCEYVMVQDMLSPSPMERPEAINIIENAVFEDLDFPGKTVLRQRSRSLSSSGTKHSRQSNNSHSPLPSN
Sequence of Tyrosine-protein kinase JAK1 (P23458 whole entry): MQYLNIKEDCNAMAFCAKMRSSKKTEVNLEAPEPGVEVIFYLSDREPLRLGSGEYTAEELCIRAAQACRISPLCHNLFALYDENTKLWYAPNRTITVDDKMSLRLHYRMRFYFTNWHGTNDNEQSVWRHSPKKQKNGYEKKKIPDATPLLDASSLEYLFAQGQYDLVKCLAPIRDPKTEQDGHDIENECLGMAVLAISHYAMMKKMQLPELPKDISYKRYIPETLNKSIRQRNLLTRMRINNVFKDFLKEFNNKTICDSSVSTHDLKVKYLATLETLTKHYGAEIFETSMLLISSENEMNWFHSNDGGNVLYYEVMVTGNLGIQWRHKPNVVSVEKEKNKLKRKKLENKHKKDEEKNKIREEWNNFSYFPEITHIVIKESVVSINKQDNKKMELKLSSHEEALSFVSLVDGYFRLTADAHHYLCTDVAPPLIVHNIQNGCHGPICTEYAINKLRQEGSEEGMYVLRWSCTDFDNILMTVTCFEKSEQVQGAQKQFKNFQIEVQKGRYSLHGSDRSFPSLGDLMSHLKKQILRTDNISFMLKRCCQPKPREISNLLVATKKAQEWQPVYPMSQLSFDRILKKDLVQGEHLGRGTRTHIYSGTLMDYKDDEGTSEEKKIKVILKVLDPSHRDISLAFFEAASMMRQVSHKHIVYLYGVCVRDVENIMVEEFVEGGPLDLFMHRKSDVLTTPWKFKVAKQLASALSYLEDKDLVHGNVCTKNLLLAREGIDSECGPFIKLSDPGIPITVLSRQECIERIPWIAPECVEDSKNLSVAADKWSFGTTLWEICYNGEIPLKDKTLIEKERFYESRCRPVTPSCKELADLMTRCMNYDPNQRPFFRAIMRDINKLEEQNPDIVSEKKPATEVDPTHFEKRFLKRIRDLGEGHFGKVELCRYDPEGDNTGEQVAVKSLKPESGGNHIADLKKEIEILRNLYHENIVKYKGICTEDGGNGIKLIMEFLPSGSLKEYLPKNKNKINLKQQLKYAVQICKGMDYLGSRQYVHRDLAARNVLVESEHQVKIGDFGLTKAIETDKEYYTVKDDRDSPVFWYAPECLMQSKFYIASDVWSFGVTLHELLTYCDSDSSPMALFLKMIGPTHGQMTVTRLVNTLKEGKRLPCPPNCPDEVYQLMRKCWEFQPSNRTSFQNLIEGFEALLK
Sequence of Insulin receptor (P06213 28-758 limits assumed): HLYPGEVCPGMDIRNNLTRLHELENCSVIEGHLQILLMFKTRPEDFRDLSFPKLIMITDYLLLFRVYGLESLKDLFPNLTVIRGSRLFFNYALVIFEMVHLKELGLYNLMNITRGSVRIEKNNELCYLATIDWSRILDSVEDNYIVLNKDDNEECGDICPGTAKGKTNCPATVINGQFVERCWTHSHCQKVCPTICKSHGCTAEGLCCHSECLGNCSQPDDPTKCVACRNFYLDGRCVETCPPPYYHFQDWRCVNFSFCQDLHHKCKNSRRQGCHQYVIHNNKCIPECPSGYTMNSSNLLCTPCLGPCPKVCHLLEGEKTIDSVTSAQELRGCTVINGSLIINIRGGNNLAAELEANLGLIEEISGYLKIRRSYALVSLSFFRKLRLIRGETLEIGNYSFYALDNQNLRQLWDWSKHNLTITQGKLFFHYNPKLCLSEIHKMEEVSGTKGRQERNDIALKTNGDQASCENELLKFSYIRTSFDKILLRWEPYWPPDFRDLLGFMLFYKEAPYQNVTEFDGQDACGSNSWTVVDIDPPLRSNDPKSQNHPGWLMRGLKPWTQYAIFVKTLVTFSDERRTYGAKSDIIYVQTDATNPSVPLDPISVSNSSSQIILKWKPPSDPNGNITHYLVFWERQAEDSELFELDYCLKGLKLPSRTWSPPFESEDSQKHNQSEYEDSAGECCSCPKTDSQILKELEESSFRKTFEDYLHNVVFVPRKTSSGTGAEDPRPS
Sequence of Insulin receptor (P06213 763-1382 limits assumed): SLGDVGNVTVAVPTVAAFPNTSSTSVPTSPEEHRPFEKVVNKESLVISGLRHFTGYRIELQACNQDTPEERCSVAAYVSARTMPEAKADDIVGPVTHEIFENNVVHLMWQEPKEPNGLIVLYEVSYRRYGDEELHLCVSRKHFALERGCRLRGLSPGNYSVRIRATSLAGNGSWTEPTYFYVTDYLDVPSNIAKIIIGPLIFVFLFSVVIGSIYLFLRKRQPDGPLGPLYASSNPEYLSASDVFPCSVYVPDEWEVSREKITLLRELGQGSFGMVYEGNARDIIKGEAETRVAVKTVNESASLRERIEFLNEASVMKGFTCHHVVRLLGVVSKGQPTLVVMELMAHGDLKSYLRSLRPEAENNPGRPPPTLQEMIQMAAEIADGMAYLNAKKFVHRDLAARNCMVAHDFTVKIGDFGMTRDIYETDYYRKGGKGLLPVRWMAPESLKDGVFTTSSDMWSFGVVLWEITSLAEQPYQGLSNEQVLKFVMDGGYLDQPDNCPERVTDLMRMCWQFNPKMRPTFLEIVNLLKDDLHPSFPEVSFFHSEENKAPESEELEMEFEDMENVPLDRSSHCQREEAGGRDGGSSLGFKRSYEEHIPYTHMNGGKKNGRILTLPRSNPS
Sequence of Serine/threonine-protein kinase haspin (Q8TF76 whole entry): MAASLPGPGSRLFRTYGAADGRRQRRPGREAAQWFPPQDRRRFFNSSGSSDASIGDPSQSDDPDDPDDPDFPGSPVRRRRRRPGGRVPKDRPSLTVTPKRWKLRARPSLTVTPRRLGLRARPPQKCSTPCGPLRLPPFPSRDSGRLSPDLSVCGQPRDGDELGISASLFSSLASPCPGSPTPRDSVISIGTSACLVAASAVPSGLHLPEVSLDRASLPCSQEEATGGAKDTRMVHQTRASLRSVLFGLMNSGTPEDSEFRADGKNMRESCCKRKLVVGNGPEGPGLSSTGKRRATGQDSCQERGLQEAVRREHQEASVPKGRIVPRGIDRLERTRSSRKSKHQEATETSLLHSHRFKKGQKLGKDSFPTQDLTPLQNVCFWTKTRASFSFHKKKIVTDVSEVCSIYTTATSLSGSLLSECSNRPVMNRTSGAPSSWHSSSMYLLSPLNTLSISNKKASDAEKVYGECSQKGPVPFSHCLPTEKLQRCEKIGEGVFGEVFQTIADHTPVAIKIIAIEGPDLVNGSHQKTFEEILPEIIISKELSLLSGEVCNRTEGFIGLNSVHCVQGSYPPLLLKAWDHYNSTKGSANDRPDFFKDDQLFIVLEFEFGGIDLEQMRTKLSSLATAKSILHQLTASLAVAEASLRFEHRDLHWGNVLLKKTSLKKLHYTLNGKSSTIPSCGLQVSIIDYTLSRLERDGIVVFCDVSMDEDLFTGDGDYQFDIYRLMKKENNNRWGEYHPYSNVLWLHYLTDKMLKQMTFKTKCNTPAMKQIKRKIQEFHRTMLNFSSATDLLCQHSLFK
Sequence of Serine/threonine-protein kinase pim-2 (Q9P1W9 whole entry): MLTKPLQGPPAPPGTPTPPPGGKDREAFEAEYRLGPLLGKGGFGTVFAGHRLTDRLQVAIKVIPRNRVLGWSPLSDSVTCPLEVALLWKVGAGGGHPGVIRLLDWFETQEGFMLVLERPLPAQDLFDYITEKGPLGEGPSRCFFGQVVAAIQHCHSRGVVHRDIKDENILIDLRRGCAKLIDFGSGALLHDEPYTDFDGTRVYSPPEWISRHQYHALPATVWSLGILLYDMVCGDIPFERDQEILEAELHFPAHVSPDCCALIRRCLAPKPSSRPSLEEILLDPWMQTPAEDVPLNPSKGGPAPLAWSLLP

Question: Which results are given for `O=C1c2ccccc2-c2n[nH]c3cccc1c23`?
Answer: IC50 [1]: > 10000 nM; IC50 [2]: 60 nM; IC50 [3]: 3280 nM; IC50 [4]: 1590 nM; IC50 [5]: 1020 nM; IC50 [6]: 300 nM; IC50 [7]: 880 nM; IC50 [8]: 90 nM; IC50 [9]: > 10000 nM; IC50 [10]: 650 nM; IC50 [11]: 1050 nM; IC50 [12]: > 10000 nM; IC50 [13]: > 10000 nM; IC50 [14]: > 10000 nM; IC50 [15]: 510 nM; IC50 [16]: > 10000 nM; IC50 [17]: > 10000 nM; IC50 [18]: > 10000 nM; IC50 [19]: > 10000 nM; IC50 [20]: > 10000 nM; IC50 [21]: 2400 nM; IC50 [22]: > 10000 nM; IC50 [23]: 410 nM; IC50 [24]: > 10000 nM; IC50 [25]: 70 nM; IC50 [26]: > 10000 nM; IC50 [27]: 190 nM; IC50 [28]: > 10000 nM; IC50 [29]: > 10000 nM; IC50 [30]: 870 nM; IC50 [31]: > 10000 nM; IC50 [32]: > 10000 nM; IC50 [33]: 3860 nM; IC50 [34]: > 10000 nM; IC50 [35]: 4650 nM; IC50 [36]: > 10000 nM; IC50 [37]: 4010 nM; IC50 [38]: 110 nM; IC50 [39]: > 10000 nM; IC50 [40]: > 10000 nM; IC50 [41]: 2290 nM; EC50 [42]: 8980 nM; IC50 [43]: > 10000 nM; IC50 [44]: 1950 nM; IC50 [45]: 2930 nM; IC50 [46]: 1090 nM

Question: With `Cn1c2ccccc2c2c3c(c4c5ccccc5n(CCC#N)c4c21)CNC3=O` [GO-6976] as the compound, how does the EC50 ([42]; u2os) read?
Answer: Its EC50 is 1990 nM.

Question: For `COc1cc2c(Nc3ccc(NC(=O)c4ccccc4)cc3)ncnc2cc1OCCCN1CCOCC1`, which EC50 ([42]; u2os) is on record?
Answer: The EC50 was 2280 nM.
